Legend:
[1] = target: Plasminogen activator inhibitor 1 (Homo sapiens, UniProt P05121); assay: Inhibitory concentration against plasminogen activator inhibitor-1 (PAI-1)
[2] = Clearance of compound in rats after intravenous administration; type: ADME, organism-based; settings: rat, in vivo
[3] = Volume of distribution of compound in rats after intravenous administration; type: ADME, organism-based; settings: rat, in vivo, read-out: Vdss
[4] = […] of compound in rats after peroral administration; type: ADME, organism-based; settings: rat, in vivo, po
[5] = Bioavailability in rat; type: ADME, organism-based; settings: in vivo
[6] = Half-life period of compound in rats after peroral administration; type: ADME, organism-based; settings: rat, in vivo, po
[7] = Maximal concentration in rats after peroral administration; type: ADME, organism-based; design: route oral; settings: rat, in vivo, po

Sequence of Plasminogen activator inhibitor 1 (P05121 whole entry): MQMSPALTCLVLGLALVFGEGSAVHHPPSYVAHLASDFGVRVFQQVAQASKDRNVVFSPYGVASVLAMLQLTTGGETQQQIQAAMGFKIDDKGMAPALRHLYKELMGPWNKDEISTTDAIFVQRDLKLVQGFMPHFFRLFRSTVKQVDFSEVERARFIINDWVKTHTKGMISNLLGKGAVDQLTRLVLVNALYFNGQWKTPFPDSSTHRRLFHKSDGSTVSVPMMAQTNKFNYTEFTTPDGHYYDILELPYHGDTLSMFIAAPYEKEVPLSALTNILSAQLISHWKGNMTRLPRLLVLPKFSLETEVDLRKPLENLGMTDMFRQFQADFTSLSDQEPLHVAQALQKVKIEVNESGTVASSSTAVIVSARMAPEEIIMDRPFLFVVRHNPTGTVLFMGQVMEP

Compound | IC50 [1] [µM] | also measured
O=C(O)C1CCN(c2c([N+](=O)[O-])ccc(F)c2CNc2ccc(N3CCN(c4cccc(C(F)(F)F)c4)CC3)c(C(F)(F)F)c2)CC1 | 0.7 | –
COc1cccc(CNc2ccc(N3CCN(c4cccc(C(F)(F)F)c4)CC3)c(C(F)(F)F)c2)c1Oc1c(C(=O)O)cc(Cl)cc1[N+](=O)[O-] | 0.9 | –
O=C(O)C1CCN(c2cc(N3CCN(c4cccc(C(F)(F)F)c4)CC3)c(C(F)(F)F)cc2[N+](=O)[O-])CC1 | 0.88 | –
O=C(O)c1ccccc1Oc1ccc([N+](=O)[O-])cc1CNc1ccc(N2CCN(c3cccc(C(F)(F)F)c3)CC2)c(C(F)(F)F)c1 | 1 | –
CC(C)[C@@H]1CC[C@@H](C)C[C@H]1OCC(=O)Nc1cc(Oc2ccc(C(=O)O)cc2)ccc1[N+](=O)[O-] | – | clearance [2]: 4.84 mL/min/kg; Vd [3]: 0.4 L/kg; Tmax [4]: 3 h; bioavailability [5]: 23%; half-life [6]: 3 h; Cmax [7]: 160 nM
COc1cccc(CNc2ccc(N3CCN(c4cccc(C(F)(F)F)c4)CC3)c(C(F)(F)F)c2)c1Oc1ccc(C(=O)O)cn1 | 0.9 | –
CC(C)[C@@H]1CC[C@@H](C)C[C@H]1OCC(=O)N1CCN(c2cc(N3CCC(C(=O)O)CC3)c(C(F)(F)F)cc2[N+](=O)[O-])CC1 | > 15 | –
O=C(O)C1CCN(c2cc(N3CCN(c4ccc(C(F)(F)F)cn4)CC3)c([N+](=O)[O-])cc2C(F)(F)F)CC1 | 3.2 | –
O=C(O)C1CCN(c2cc(N3CCN(C(=O)c4cccc(C(F)(F)F)c4)CC3)c([N+](=O)[O-])cc2C(F)(F)F)CC1 | 5 | –
O=C(O)C1CCCN(c2cc(N3CCN(c4cccc(C(F)(F)F)c4)CC3)c([N+](=O)[O-])cc2C(F)(F)F)C1 (stereo not given) | 2.8 | –
O=C(O)c1ccc(CNc2cc(N3CCN(c4cccc(C(F)(F)F)c4)CC3)ccc2[N+](=O)[O-])cc1 | 2.8 | –
O=C(O)c1ccc(CNc2cc(N3CCN(c4cccc(C(F)(F)F)c4)CC3)c([N+](=O)[O-])cc2[N+](=O)[O-])cc1 | 1.4 | –
O=C(O)C1CCCN(c2cccc(F)c2CNc2ccc(N3CCN(c4cccc(C(F)(F)F)c4)CC3)c(C(F)(F)F)c2)C1 (stereo not given) | 1.7 | –
O=C(O)C1CCN(c2cc(N3CCN(c4c([N+](=O)[O-])ccc(C(F)(F)F)c4[N+](=O)[O-])CC3)c([N+](=O)[O-])cc2C(F)(F)F)CC1 | > 15 | –
O=C(O)C1CCN(c2cc(N3CCN(Cc4cccc(C(F)(F)F)c4)CC3)c([N+](=O)[O-])cc2C(F)(F)F)CC1 | 4.3 | –
O=C(O)C1CCN(c2cc(N3CCN(c4cccc(C(F)(F)F)c4)CC3)c([N+](=O)[O-])cc2C(F)(F)F)CC1 | 0.91 | –
COc1cccc(CNc2ccc(N3CCN(c4cccc(C(F)(F)F)c4)CC3)c(C(F)(F)F)c2)c1Oc1ccc([N+](=O)[O-])cc1C(=O)O | 0.5 | clearance [2]: 10.4 mL/min/kg; Vd [3]: 1.33 L/kg; Tmax [4]: 3 h; bioavailability [5]: 43%; half-life [6]: 2.8 h; Cmax [7]: 480 nM

Compound | IC50 [1] [µM] | also measured
O=C(O)C1CCCN1c1cc(N2CCN(c3cccc(C(F)(F)F)c3)CC2)c([N+](=O)[O-])cc1C(F)(F)F (stereo not given) | 7.9 | –
O=C(O)c1ccc(CNc2ccc([N+](=O)[O-])c(N3CCN(c4cccc(C(F)(F)F)c4)CC3)n2)cc1 | 6.1 | –
O=C(O)c1cc(Br)ccc1Oc1cccc(F)c1CNc1ccc(N2CCN(c3cccc(C(F)(F)F)c3)CC2)c(C(F)(F)F)c1 | 0.8 | –
O=C(O)C1CCCN1c1c([N+](=O)[O-])ccc(F)c1CNc1ccc(N2CCN(c3cccc(C(F)(F)F)c3)CC2)c(C(F)(F)F)c1 (stereo not given) | 1.4 | –
O=C(O)c1ccc(CNc2cc(N3CCN(c4cccc(C(F)(F)F)c4)CC3)c([N+](=O)[O-])cc2C(F)(F)F)cc1 | 1.5 | –
O=[N+]([O-])c1cc(C(F)(F)F)c(N2CCN(c3cccc(C(F)(F)F)c3)CC2)cc1NC[P+]([O-])(O)O | 1.8 | –
O=C(O)c1ccc(CNc2ccc([N+](=O)[O-])c(N3CCN(c4cccc(C(F)(F)F)c4)CC3)c2)cc1 | 6.7 | –
O=C(O)c1ccc(Oc2cc(N3CCN(c4cccc(C(F)(F)F)c4)CC3)c([N+](=O)[O-])cc2C(F)(F)F)cc1 | 2.1 | –
O=C(O)C1CCN(c2cccc(F)c2CNc2ccc(N3CCN(c4cccc(C(F)(F)F)c4)CC3)c(C(F)(F)F)c2)CC1 | 1 | –
O=C(O)C1CCN(c2cc(N3CCN(c4ccc(C(F)(F)F)cc4)CC3)c([N+](=O)[O-])cc2C(F)(F)F)CC1 | 1.1 | –
O=C(O)CCNc1cc(N2CCN(c3cccc(C(F)(F)F)c3)CC2)c([N+](=O)[O-])cc1C(F)(F)F | 0.9 | –
COC(=O)c1c(NCc2ccc(C(=O)O)cc2)ccc([N+](=O)[O-])c1N1CCN(c2cccc(C(F)(F)F)c2)CC1 | > 15 | –
O=C(O)c1ccc(CNc2ccc(N3CCN(c4cccc(C(F)(F)F)c4)CC3)c(C(F)(F)F)c2)cc1 | 1.7 | –
O=C(O)C1CCN(c2cc(N3CCN(C(=O)Nc4cccc(C(F)(F)F)c4)CC3)c([N+](=O)[O-])cc2C(F)(F)F)CC1 | 3.5 | –
O=C(O)C1CCN(c2cccc(C(F)(F)F)c2CNc2ccc(N3CCN(c4cccc(C(F)(F)F)c4)CC3)c(C(F)(F)F)c2)CC1 | 1.7 | –
O=C(O)c1cccc(Oc2cc(N3CCN(c4cccc(C(F)(F)F)c4)CC3)c([N+](=O)[O-])cc2C(F)(F)F)c1 | 3.7 | –
O=C(O)c1ccc(CNc2nc(N3CCN(c4cccc(C(F)(F)F)c4)CC3)ccc2[N+](=O)[O-])cc1 | 3.4 | –

— ChEMBL document CHEMBL1138693, “Synthesis and biological evaluation of piperazine-based derivatives as inhibitors of plasminogen activator inhibitor-1 (PAI-1)” (Bioorg Med Chem Lett, 2004)
